Reference: publication PMC9560598 (PLoS Pathogens, 2022)
Where “and” joins values, the source holds several entries; their conditions need not be identical. Equal values may be shown once. Read-outs that look alike come from different tables or passages of the source. Bridge positions count the residues as written; N and C are the ends. Ends that are not written are not given here. Peptide text beside a SMILES is read from it.

Assays:
[1] = tested on: encapsulated WT B. anthracis Ames bacilli; settings: for killing: encapsulated WT Ames bacilli, 2 h
[2] = tested on: non-encapsulated Sterne strain of B. anthracis; settings: cited from earlier work
[3] = type: binding, Bacillus anthracis; settings: n = 3
[4] = tested on: encapsulated WT B. anthracis Ames bacilli; type: cell-based, Bacillus anthracis
[5] = tested on: encapsulated killed WT B. anthracis bacilli; type: cell-based, Bacillus anthracis

Compound: CC[C@H](C)[C@@H]1NC(=O)[C@H](CCCCN)NC(=O)[C@H]([C@@H](C)O)NC(=O)[C@H](Cc2ccccc2)NC(=O)[C@H]([C@@H](C)CC)NC(=O)[C@@H]2CCCN2C(=O)[C@@H]2CSSC[C@@H](C(=O)N[C@@H](CCCCN)C(=O)O)NC(=O)[C@@H]3CSSC[C@H](NC(=O)[C@H](CC(N)=O)NC(=O)[C@H](Cc4ccc(O)cc4)NC(=O)[C@H](Cc4c[nH]cn4)NC(=O)[C@@H](N)CC(=O)O)C(=O)N[C@@H](C(C)C)C(=O)N[C@@H](CO)C(=O)N[C@@H](CO)C(=O)NCC(=O)NCC(=O)N[C@@H](CCC(N)=O)C(=O)N[C@@H](CSSC[C@H](NC(=O)[C@H]([C@@H](C)O)NC(=O)CNC(=O)[C@H](CCC(N)=O)NC1=O)C(=O)N[C@@H](Cc1ccc(O)cc1)C(=O)N[C@@H](CCCNC(=N)N)C(=O)NCC(=O)N[C@@H](CCCCN)C(=O)N[C@@H](C)C(=O)N[C@@H](CCCCN)C(=O)N3)C(=O)N[C@@H](CC(C)C)C(=O)N[C@@H](Cc1ccc(O)cc1)C(=O)N[C@@H](CO)C(=O)N[C@@H](C)C(=O)N2 [HBD-1] (H-DHYNCVSSGGQCLYSACPIFTKIQGTCYRGKAKCCK-OH; disulfide 5-34, 12-27, 17-35 (inferred); N-terminus and C-terminus assumed)
- % of 0 μg/ml Control, Mean [1]: 59.1%
- killing ([1]; 20 μg/ml): 41%
- Killing of the non-encapsulated Sterne strain [2]: could not

Compound: GIGDPVTCLKSGAICHPVFCPRRYKQIGTCGLPGTKCCKKP (disulfide 8-37, 15-30, 20-38 (inferred)) [HBD-2]
- % of 0 μg/ml Control, Mean [1]: 34.5% and 26.0%
- killing ([1]; 20 μg/ml): 65%
- Binding to purified capsule (shift in electrophoretic mobility towards the cathode) [3]: bound to capsule
- Bactericidal activity against the Sterne strain [2]: modest bactericidal activity
- Killing of the non-encapsulated Sterne strain [2]: could not

Compound: GIINTLQKYYCRVRGGRCAVLSCLPKEEQIGKCSTRGRKCCRRKK (disulfide 11-40, 18-33, 23-41 (inferred)) [HBD-3]
- Localisation of HBD-3 on bacilli [4]: only on the outer surface of the capsule
- Concentrations at which bactericidal activity (significant killing) was observed [1]: 0.2 to 20 µg/mL
- killing ([1]; 0.2 μg/ml): 58%
- killing ([1]; 20 μg/ml): 71%
- Binding to purified capsule (shift in electrophoretic mobility towards the cathode) [3]: bound to capsule
- Killing of the non-encapsulated Sterne strain [2]: could kill
- % reduction of MFI [5]: 29.6639% and 31.2268% and 35.1463% and 34.7672%
- % reduction of MFI, avg [5]: 32.7011%
- mean fluorescence intensity (MFI) [5]: 706.28 and 766.2 and 635.97 and 635.34 and 496.77 and 526.94 and 412.45 and 414.45
- mean fluorescence intensity (MFI), avg [5]: 685.947 and 462.653

Compound: Melittin
- Concentrations at which bactericidal activity (significant killing) was observed [1]: 0.1 to 100 µg/mL

Compound: Nisin
- Concentrations at which bactericidal activity (significant killing) was observed [1]: 0.1 to 100 µg/mL

Compound: Polymyxin B
- Concentrations at which bactericidal activity (significant killing) was observed [1]: 1 to 100 µg/mL
